Results from patent US10398142B2, “Polycationic amphiphiles as antimicrobial agents” (priority 2013, dated 2019).
Like-named read-outs stand apart in the source and are kept apart here. Marks after values point to notes of the source that are not given here.

Assays:
[1] = tested on: Enterococcus faecalis (OG1RF); experiment: Minimum inhibitory concentration (MIC), broth microdilution; format: cell-based; conditions: for MIC: read-out: MIC E. faecalis
Method in brief: (§1)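 Broth microdilution: two-fold serial dilutions (twelve concentrations) mixed 1:1 with overnight cultures diluted to ca. 10^6 cfu/mL in Mueller-Hinton media, incubated statically at 37° C for 72 hours. MIC is lowest concentration with no growth visible to the naked eye, majority of three independent experiments.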

[2] = tested on: Escherichia coli (MC4100); experiment: as above; format: cell-based; conditions: for MIC: read-out: MIC E. coli
Method in brief: as §1

[3] = tested on: Pseudomonas aeruginosa (PAO1); experiment: as above; format: cell-based
Method in brief: as §1

[4] = tested on: Staphylococcus aureus MSSA (SH1000); experiment: as above; format: cell-based
Method in brief: as §1

CA-MRSA (USA300-0114) [5] = experiment: as above; format: cell-based, Staphylococcus aureus; conditions: for MIC: read-out: MIC CA-MRSA
Procedure: (§2) Different biological assays were performed. […] All cultures, with the exception of E. faecalis, were grown with shaking at 250 rpm.
(§3) Minimum inhibitory concentration (MIC) values against bacteria were measured using standard method. Compounds were serially diluted two-fold from an aqueous stock solution to yield twelve test concentrations. Overnight S. aureus, E. faecalis, E. coli, P. aeruginosa, CA-MRSA, and HA-MRSA cultures diluted to ca. 10^6 cfu/mL in Mueller-Hinton media and 100 μL were inoculated into each well of a U-bottom 96-well plate (BD Biosciences, BD351177) containing 100 μL of compound solution. Plates were incubated statically at 37° C. for 72 hours upon which time wells were evaluated visually for bacterial growth. The MIC was determined as the lowest concentration of compound resulting in no bacterial growth visible to the naked eye, based on the majority of three independent experiments. Positive and negative aqueous and media controls were conducted for each trial.

HA-MRSA (ATCC 33591) = experiment: as above; format: cell-based, Staphylococcus aureus; conditions: for MIC: read-out: MIC HA-MRSA
Procedure: as §2, §3

[6] = tested on: S. aureus (MSSA, SH1000) biofilms; experiment: Minimum biofilm eradication concentration (MBEC), regrowth assay; format: cell-based, Staphylococcus aureus; conditions: for MBEC MSSA: Table 5, SH1000
Method in brief: (§4)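 Static 24 h biofilms at 37° C. (BHI for S. aureus, Todd Hewitt for E. faecalis), then 16 h compound exposure, PBS washes and overnight regrowth in fresh media. MBEC is the lowest concentration giving final OD595 below 0.1; four replicates per concentration.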

E. faecalis biofilms = experiment: as above; format: cell-based, Enterococcus faecalis
Method in brief: as §4

[7] = tested on: CA-MRSA (USA300-0114) biofilms; experiment: as above; format: cell-based, Staphylococcus aureus; conditions: for MBEC CA-MRSA: Table 5, USA300-0114
Procedure: A regrowth assay was used to establish the MBEC of a compound to evaluate the antibiofilm activity. See also H. Ceri, M. Olson, D. Morck, D. Storey, R. Read, A. Buret, B. Olson, Methods Enzymol. 2001, 337, 377.
Different biological assays were performed. For all biological assays, laboratory strains of methicillin-susceptible Staphylococcus aureus MSSA (SH1000), Enterococcus faecalis (OG1RF), Escherichia coli (MC4100), Pseudomonas aeruginosa (PAO1), community-acquired methicillin-resistant Staphylococcus aureus CA-MRSA (USA300-0114), and hospital-acquired methicillin-resistant Staphylococcus aureus HA-MRSA (ATCC 33591) were grown at 37° C. overnight from freezer stocks in 10 mL of the media indicated for each assay. All cultures, with the exception of E. faecalis, were grown with shaking at 250 rpm.
Minimum biofilm eradication concentration (MBEC) was also measured. To each well of a flat-bottomed 96-well plate (Corning 3370), 8 μL of overnight bacterial culture was brought to a volume of 200 μL with fresh media (BHI for S. aureus and MRSA, Todd Hewitt (TH) for E. faecalis). Plates were incubated statically for 24 hours at 37° C. to establish biofilms. After 24 hours, the wells were carefully emptied by inverting the plate and gently shaking. A pre-mixed solution of media and aqueous compound stock solution was added to each well and plates were incubated at 37° C. 16 hours after pre-established biofilms were treated with compound, the media from each well was removed, biofilms were washed three times with 200 μL PBS to remove planktonic cells, and biofilms were incubated overnight at 37° C. in 200 μL of fresh media to allow any viable cells to continue growing. The wells were then vigorously pipetted to resuspend the biofilm cells and the OD at 595 nm was measured using a plate reader (POLARstar Omega, BMG Labtech). Biofilms reaching a final OD of less than 0.1 were considered eradicated and the lowest concentration of antibiotic corresponded to the MBEC. Four replicates were completed for each concentration of compound as well as positive and negative controls.

[8] = tested on: red blood cells (defibrinated sheep blood); experiment: Hemolysis assay (Lysis20); conditions: concentration at which less than 20% of red blood cells are lysed
Procedure: Hemolysis assays (Lysis20) were performed according to the procedure detailed in Peng, L., DeSousa, J., Su, Z., Novak, B. M., Nevzorov, A. A., Garland, E. R., and Melander, C., Inhibition of Acinetobacter baumannii biofilm formation on a methacrylate polymer containing a 2-aminoimidazole subunit, Chem. Comm. 2011, 47, 4896-4898. Defibrinated sheep blood was purchased from Hemostat Labs (DSB 100). Compounds representative of each class were serially diluted in sterile PBS from aqueous stock solutions and incubated with resuspended blood cells. The OD of the final suspensions were measured directly using plate reader. TritonX (1% by volume) served as a positive control (100% lysis marker) and sterile PBS served as a negative control (0% lysis marker).
Lysis20 indicates the concentration of compound (in μM) at which less than 20% of red blood cells are lysed.

S. aureus biofilms = experiment: Crystal violet staining and confocal microscopy of pre-established biofilms; format: cell-based, Staphylococcus aureus; conditions: compared to the aqueous control or norspermidine; 16 h post-treatment
Procedure: Left: Submerged S. aureus biofilms 16 h post-treatment with the indicated final well concentration of compound. Middle: Biofilms stained with 1% crystal violet. Right: Confocal microscopy images of biofilms 16 h post-treatment.
The inventors have determined that both cationic character and alkyl side chains are important for biofilm eradication.

CA-MRSA (USA300-0114) [9] = experiment: Resistance development, liquid culture serial passage; format: cell-based, Staphylococcus aureus; conditions: for resistance in serial passage, CA-MRSA (USA300-0114): over 24 days (>500 generations)
Procedure: (§5) Resistance development such as liquid culture resistance assay was performed. […] Once a day, an aliquot of bacterial culture from the highest concentration allowing bacterial growth was diluted 1:10,000 in fresh media containing a range of antibacterial compound. This process was repeated for several hundred generations.
(§6) Resistance Development Assays: Liquid culture serial passage protocols, in which bacteria are successively grown at sub-lethal concentrations of antibacterial compound, were employed.

MSSA (SH1000) = experiment: as above; format: cell-based, Staphylococcus aureus; conditions: for resistance in serial passage, MSSA: over 24 days (>500 generations); for elevated concentration with consistent growth: MSSA (SH1000) passaged with sub-lethal doses
Procedure: as §5, §6

[10] = Table 1, read-out: MIC P. aeruginosa
[11] = Table 3, read-out: MIC P. aeruginosa
[12] = Table 1, read-out: MIC S. aureus
[13] = Table 3, read-out: MIC S. aureus
[14] = Table 4, SH1000, read-out: MIC MSSA
[15] = Table 2, pre-established biofilm, ± values varied between 50 and 100 μM for the six trials
[16] = table for compound (12,3,2,3,12)
[17] = over a period of at least 14 days

Row | Structure (SMILES) | MIC ([1]; Table 1) [µM] | MIC ([1]; Table 3) [µM] | MIC ([2]; Table 1) [µM] | MIC ([2]; Table 3) [µM] | MIC [3, 10] [µM] | MIC [3, 11] [µM] | MIC [4, 12] [µM] | MIC [4, 13] [µM] | MIC [4, 14] [µM] | MIC (CA-MRSA (USA300-0114) [5]; Table 4, USA300-0114) [µM] | MIC (HA-MRSA (ATCC 33591); Table 4, ATCC 33591) [µM] | MBEC S. aureus [6, 15] [µM] | MBEC MSSA [6] [µM] | MBEC E. faecalis (E. faecalis biofilms; [15]) | MBEC E. faecalis (E. faecalis biofilms; Table 5) [µM] | MBEC CA-MRSA [7] [µM] | Lysis20 ([8]; Table 4) [µM] | effect against pre-established biofilms, crystal violet staining (S. aureus biofilms) | resistance in serial passage, CA-MRSA (USA300-0114) (CA-MRSA (USA300-0114) [9]) | resistance in serial passage, MSSA (MSSA (SH1000)) | other results
1 | CCCCCCCCCCCC[N+](C)(C)CCCN(C)CCC[N+](C)(C)CCCCCCCCCCCC.[Br-].[Br-] [12,3,0,3,12] | ≤0.25 | 2 | ≤0.25 | 1 | 4 | 4 | 1 | 1 | 1 | 1 | 0.5 | 100 | 50 | 50 µM | 100 | 150 ± 50 | 4 | significant effect |  |  | 
2 | CCCCCCCCCCCC[N+](C)(C)CCC[N+](C)(C)CCC[N+](C)(C)CCCCCCCCCCCC.[Br-].[Br-].[I-] [12,3,1,3,12] | 1 | 2 | 1 | 2 | 2 | 8 | 0.5 | 1 | 1 | 0.5 | 1 | 100 | 100 | 50 µM | 200 | 150 ± 50 | 8 | significant effect |  |  | 
3 | CCCCCCCCCCCC[N+](C)(C)CCC[N+](C)(CC)CCC[N+](C)(C)CCCCCCCCCCCC.[Br-].[Br-].[Br-] [12,3,2,3,12] |  |  |  |  |  |  |  |  | 0.5 | 0.5 | 1 |  | 100 |  | 100 | 100 | 8 |  | No resistance was observed | No resistance was observed | MIC E. faecalis (OG1RF) [1, 16]: 0.5 µM; MIC E. coli (MC4100) [2, 16]: 1 µM; MIC P. aeruginosa (PA01) [3, 16]: 2 µM; MIC S. aureus (SH1000) [4, 16]: 0.5 µM; MIC CA-MRSA (USA300-0114) (CA-MRSA (USA300-0114) [5]; [16]): 0.5 µM; MIC HA-MRSA (ATCC33591) (HA-MRSA (ATCC 33591); [16]): 1 µM; MBEC S. aureus [6, 16]: 100 µM; MBEC E. faecalis (E. faecalis biofilms; [16]): 100 µM; MBEC USA300-0114 [7, 16]: 100 µM; Lysis20 [8, 16]: 8 µM; resistance in serially passaged liquid culture, USA300-0114 (CA-MRSA (USA300-0114) [9]; [17]): No resistance was observed; resistance in serially passaged liquid culture, SH1000 (MSSA (SH1000); [17]): No resistance was observed
4 | CCCCCCCCCCCC[N+](C)(C)CCC[N+](C)(C)CCCCCCCCCCCC.[Br-].[Br-] [12,3,12] | 1 |  | 1 |  | 4 |  | 2 |  | 2 | 1 | 2 | 100 | 75 ± 25 | 75 ± 25^a μM | 50 | 100 | 8 | significant effect | No resistance was observed | No resistance was observed | 
5 | CCCCCCCCCCCC[N+](C)(C)Cc1ccccc1.[Cl-] [Bn,12, benzyldimethyldodecylammonium chloride, reference compound] |  | 8 |  | 32 |  | 63 |  | 8 |  |  |  | 200 | >200 | 200 µM | ≥200 | ≤200 | 63 |  |  |  | MIC ([1]; Enterococcus faecalis): 8 µM; MIC ([2]; Escherichia coli): 32 µM; MIC ([3]; Pseudomonas aeruginosa, PAO1, read-out: MIC P. aeruginosa): 63 µM; MIC ([4]; Staphylococcus aureus, MSSA, read-out: MIC MSSA): 8 µM; MIC ([4]; Staphylococcus aureus, MSSA, read-out: MIC S. aureus): 8 µM; MIC (CA-MRSA (USA300-0114) [5]; Staphylococcus aureus): 32 µM; potency against CA-MRSA strain possessing qacA/R (in words) (CA-MRSA (USA300-0114) [5]; compared with MSSA): decreased potency; MIC (HA-MRSA (ATCC 33591); Staphylococcus aureus): 8 µM; resistance development in MSSA (in words) (MSSA (SH1000); Bn,12: 31 days (>700 generations), 10,10: 10 days, 240 generations): development of resistance; elevated concentration with consistent growth (MSSA (SH1000); at day 11): 2 ×MIC; elevated concentration with consistent growth (MSSA (SH1000); at day 24): 4 ×MIC
